According to paper PMC3804772, “Rational Design, Synthesis, and Biological Evaluation of Third Generation α-Noscapine Analogues as Potent Tubulin Binding Anti-Cancer Agents” (PLoS ONE, 2013):
Where two headings read alike, the source gives them in different places.

Tests used:
tubulin [1] = target: T1, tubulin (Bos taurus, UniProt P81947+Q6B856); test: Tubulin binding assay (quenching of intrinsic tryptophan fluorescence); set-up: species or system bovine; settings: for Kd: 2 µM tubulin, PEM buffer pH 6.8, 37 °C, 45 min, mean ± S.D.; for Experimental ΔGbind: calculated from KD, ΔGbind = RT ln KD, T = 298 K
T1 construct: Tubulin devoid of microtubule-associated proteins (MAPs) was purified from bovine brain; from tissue; host or cells: bovine brain
Method: Tubulin devoid of microtubule-associated proteins (MAPs) was purified from bovine brain by cycles of temperature-dependent polymerization and depolymerization as described previously followed by phosphocellulose chromatography. The concentration of the tubulin was determined by the method of Bradford using BSA as the standard. Purified tubulin was quickly frozen as drops in liquid nitrogen and stored at - 80 °C until used.
Noscapinoids quench the […] intrinsic tryptophan fluorescence of tubulin in a concentration-dependent fashion as described previously. This has allowed an easy method for measuring the tubulin-noscapinoids interactions. Briefly, the compounds 5a, 6a-j (0-200 µM) were incubated with 2 µM tubulin in PEM buffer (100 mM PIPES, pH 6.8, 3 mM MgSO4, and 1 mM EGTA) at 37 °C for 45 min. After incubation, the samples were excited at 295 nm. The relative intrinsic fluorescence intensity of the tubulin was then monitored in the absence and presence of the compound 5a, 6a-j using a Varian Cary Eclipse Fluorescence Spectrophotometer (Agilent Technologies, CA, USA). The emission readings were recorded at 335 nm. We used a 0.3 cm path-length cuvette to minimize the inner filter effects caused by the absorbance of the noscapinoids. In addition, the inner filter effects were corrected using a formula F corrected = F observed·antilog [(A ex + A em)/2], where A ex is the absorbance at the excitation wavelength and A em is the absorbance at the emission wavelength. The equilibrium dissociation constant (KD) was determined by the formula: 1/a = KD/[free ligand] + 1, where a is the fractional occupancy and [free ligand] is the concentration of free ligand. The fractional occupancy (a) was determined by the formula a = ΔF/ΔF max, where ΔF is the change in fluorescence intensity when tubulin and its ligand are in equilibrium and ΔF max is the value of maximum fluorescence change when tubulin is completely bound with its ligand. ΔF max was calculated by plotting 1/ΔF versus 1/ligand, using total ligand concentration as the first estimate of free ligand concentration. Three independent experiments were performed for each noscapinoid.

[2] = system: human lymphoblast cell line (CEM); test: In vitro cell proliferation assay (SRB), CEM; format: cell-based; settings: 72 h, mean ± S.D.
Method: (§1) The cell proliferation assay was performed in 96-well plates as described previously. A panel of four cancer cell lines of different tissues of origins, namely: human lung adenocarcinoma epithelial cell line (A549), human lymphoblast cell line (CEM), human cervix cell line (HeLa) and human breast epithelial cell line (MCF-7) were studied. These cell lines were obtained from the National Repository of Animal Cell Culture, National Centre for Cell Sciences, Pune (NCCS), India. Briefly, 2 x10^3 cells were seeded in each well and were incubated with gradient concentrations of 5a, 6a-j compounds for 72 h. The cells were then fixed with 50% trichloroacetic acid and stained with 0.4% sulforhodamine B (SRB) dissolved in 1% acetic acid. Cells were then washed with1% acetic acid to remove excess (unbound) SRB. The protein-bound SRB was dissolved with 10 mM Tris base and the absorbance at 564 nm was determined using a SPECTRAmax PLUS 384 microplate spectrophotometer.

[3] = system: human cervix cell line (HeLa); test: In vitro cell proliferation assay (SRB), HeLa; format: cell-based; settings: 72 h, mean ± S.D.
Method: as §1

[4] = system: human lung adenocarcinoma epithelial cell line (A549); test: In vitro cell proliferation assay (SRB), A549; format: cell-based; settings: 72 h, mean ± S.D.
Method: as §1

[5] = system: human breast epithelial cell line (MCF-7); test: In vitro cell proliferation assay (SRB), MCF-7; format: cell-based; settings: MCF7, 72 h, mean ± S.D.
Method: as §1

MCF-7 cells = test: Cell cycle analysis by flow cytometry (propidium iodide); format: cell-based, human; settings: MCF-7, 25 µM
Method: The flow cytometric evaluation of the cell cycle status was performed as described previously. Briefly, cells (2 x 10^6) treated with the noscapinoids up to 72 h were centrifuged, washed twice with cold PBS, and fixed in 70% ethanol. Tubes containing the cell pellets were stored at 4 °C for minimum of 24 h. Cells were then centrifuged at 1000 x g for 10 min and the supernatant was discarded. The pellets were washed twice with 5 ml of PBS and then stained with 0.5 ml of propidium iodide (0.1% of Pl + 0.6% Triton-X in PBS) and 0.5 ml of RNase A (2 mg/ml) for 45 minutes in dark. Samples were then analyzed on a FACS Calibur flow cytometer ([…]).

tubulin [6] = test: Tubulin binding of noscapine and previously reported noscapinoids (literature values); settings: Table 1; calculated from KD, ΔGbind = RT ln KD, T = 298 K
Method: Here ⟨ ⟩ represent the ensemble average, b represents the bound form of the ligand, f represents the free form of the ligand, and α, β, and γ are the coefficients. U vdw, U elec, and U cav are the van der Waals, electrostatic, and cavity energy terms in the SGB continuum solvent model. The cavity energy term, U cav, is proportional to the exposed surface area of the ligand. Various energy parameters included in equation 1 were calculated from the docked complex corresponding to each analogue using Liaison package as described previously. The average LIE energy terms were used for building the binding affinity model and estimation of binding free energies of noscapine derivatives. The α, β, and γ LIE fitting parameters were determined using Minitab statistical package (version 16.0, Minitab Inc.) by fitting the experimental binding affinities of training set molecules. A dataset consisting of 7 noscapine derivatives (compounds: 1, 2a-f; Figure 2) with known experimental binding affinities was used as a training set.

tubulin [7] = settings: cited from earlier work
[8] = Table 1, training set with known experimental binding affinities, mean ± S.D., read-out: KD value

T1 sequence (Q6B856 whole entry): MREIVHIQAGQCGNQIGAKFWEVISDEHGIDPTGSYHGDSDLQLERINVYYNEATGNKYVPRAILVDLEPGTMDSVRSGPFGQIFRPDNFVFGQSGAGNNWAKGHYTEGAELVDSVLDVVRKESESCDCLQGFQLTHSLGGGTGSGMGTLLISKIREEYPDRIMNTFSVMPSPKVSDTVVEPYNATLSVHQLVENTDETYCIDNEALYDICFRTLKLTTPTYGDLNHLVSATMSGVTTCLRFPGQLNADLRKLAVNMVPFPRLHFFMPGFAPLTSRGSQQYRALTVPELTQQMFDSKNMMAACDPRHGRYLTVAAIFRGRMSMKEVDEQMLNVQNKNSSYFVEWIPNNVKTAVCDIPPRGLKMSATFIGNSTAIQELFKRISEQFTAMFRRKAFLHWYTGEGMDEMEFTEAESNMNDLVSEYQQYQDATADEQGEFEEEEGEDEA
T1 sequence (P81947 whole entry): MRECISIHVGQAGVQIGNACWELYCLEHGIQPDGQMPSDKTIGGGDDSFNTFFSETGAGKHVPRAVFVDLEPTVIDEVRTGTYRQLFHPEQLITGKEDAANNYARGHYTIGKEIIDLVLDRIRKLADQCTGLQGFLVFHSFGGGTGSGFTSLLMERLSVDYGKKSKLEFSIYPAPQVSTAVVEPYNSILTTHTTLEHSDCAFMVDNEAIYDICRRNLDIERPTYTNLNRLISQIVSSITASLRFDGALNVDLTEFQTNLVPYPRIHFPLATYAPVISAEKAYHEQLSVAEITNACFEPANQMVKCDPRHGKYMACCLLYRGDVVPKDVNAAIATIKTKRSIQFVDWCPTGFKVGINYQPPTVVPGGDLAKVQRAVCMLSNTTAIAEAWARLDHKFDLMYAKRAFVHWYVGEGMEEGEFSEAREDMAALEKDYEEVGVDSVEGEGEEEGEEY

## COc1ccc2c(c1OC)C(=O)O[C@@H]2[C@H]1c2c(cc3c(c2OC)OCO3)CCN1Cc1ccc([N+](=O)[O-])cc1 [Compound 6c, (S)-6,7-dimethoxy-3-((R)-4-methoxy-6-(4-nitrobenzyl)-5,6,7,8-tetrahydro-[1,3]dioxolo[4,5-g]isoquinolin-5-yl)isobenzofuran-1(3H)-one]
Tubulin [1]
  Kd: 91 ± 8 µM
  Experimental ΔGbind: -5.518 kcal/mol
[2]
  IC50: 10 ± 0.8 µM
[3]
  IC50: 23.7 ± 1.5 µM
[4]
  IC50: 49 ± 2.5 µM
[5]
  IC50: 38.2 ± 2.5 µM
MCF-7 cells
  Cell cycle parameters % G0/G1, 24 hours: 20.72%
  Cell cycle parameters % G2/M, 24 hours: 63.49%
  Cell cycle parameters % S, 24 hours: 4.85%
  Cell cycle parameters % Sub-G1, 24 hours: 8.08%
  Cell cycle parameters % G0/G1, 72 hours: 15.38%
  Cell cycle parameters % G2/M, 72 hours: 38.41%
  Cell cycle parameters % S, 72 hours: 8.27%
  Cell cycle parameters % Sub-G1, 72 hours: 36.73%
other
  melting point: 154 °C

## COc1ccc2c(c1OC)C(=O)O[C@@H]2[C@H]1c2c(c(Cl)c3c(c2OC)OCO3)CCN1C [Compound 2b]
Tubulin [6]
  Experimental ΔGbind: -6.006 kcal/mol
Tubulin [7]; [8]
  Kd: 40 ± 8 µM

## COc1ccc2c(c1OC)C(=O)O[C@@H]2[C@H]1c2c(c(Br)c3c(c2OC)OCO3)CCN1C [Compound 2c, 9-bromonoscapine]
Tubulin [6]
  Experimental ΔGbind: -5.827 kcal/mol
Tubulin [7]; [8]
  Kd: 54 ± 9.1 µM

## COc1ccc2c(c1OC)C(=O)O[C@@H]2[C@H]1c2c(c(I)c3c(c2OC)OCO3)CCN1C [Compound 2d]
Tubulin [6]
  Experimental ΔGbind: -6.360 kcal/mol
Tubulin [7]; [8]
  Kd: 22 ± 4 µM

## CCOC(=O)CN1CCc2cc3c(c(OC)c2[C@@H]1[C@H]1OC(=O)c2c1ccc(OC)c2OC)OCO3 [Compound 6j, Ethyl 2-((R)-5-((S)-4,5-dimethoxy-3-oxo-1,3-dihydroisobenzofuran-1-yl)-4-methoxy-7,8-dihydro-[1,3]dioxolo[4,5-g]isoquinolin-6(5H)-yl)acetate]
Tubulin [1]
  Kd: 228 ± 10 µM
  Experimental ΔGbind: -4.973 kcal/mol
[2]
  IC50: 13.6 ± 1.3 µM
[3]
  IC50: 32.4 ± 2.4 µM
[4]
  IC50: 72.3 ± 3.5 µM
[5]
  IC50: 52.6 ± 3.8 µM
MCF-7 cells
  Cell cycle parameters % G0/G1, 24 hours: 25.71%
  Cell cycle parameters % G2/M, 24 hours: 66.17%
  Cell cycle parameters % S, 24 hours: 3.09%
  Cell cycle parameters % Sub-G1, 24 hours: 8.29%
  Cell cycle parameters % G0/G1, 72 hours: 22.16%
  Cell cycle parameters % G2/M, 72 hours: 39.48%
  Cell cycle parameters % S, 72 hours: 8.63%
  Cell cycle parameters % Sub-G1, 72 hours: 27.24%
other
  melting point: 92 °C

## COc1ccc2c(c1OC)C(=O)O[C@@H]2[C@H]1c2c(c(N=[N+]=[N-])c3c(c2OC)OCO3)CCN1C [Compound 2f]
Tubulin [6]
  Experimental ΔGbind: -6.628 kcal/mol
Tubulin [7]; [8]
  Kd: 14 ± 1 µM

## COc1ccc2c(c1OC)C(=O)O[C@@H]2[C@H]1c2c(c(F)c3c(c2OC)OCO3)CCN1C [Compound 2a]
Tubulin [6]
  Experimental ΔGbind: -5.587 kcal/mol
Tubulin [7]; [8]
  Kd: 81 ± 8 µM

## COc1ccc2c(c1OC)C(=O)O[C@@H]2[C@H]1c2c(c([N+](=O)[O-])c3c(c2OC)OCO3)CCN1C [Compound 2e]
Tubulin [6]
  Experimental ΔGbind: -5.551 kcal/mol
Tubulin [7]; [8]
  Kd: 86 ± 6 µM

## COc1ccc2c(c1OC)C(=O)O[C@@H]2[C@H]1c2c(cc3c(c2OC)OCO3)CCN1C [Compound 1, noscapine]
Tubulin [6]
  Experimental ΔGbind: -5.246 kcal/mol
[2]
  IC50: 14.5 ± 2.5 µM
[3]
  IC50: 24 ± 2.9 µM
[4]
  IC50: 72.9 ± 4.6 µM
[5]
  IC50: 42.3 ± 2.7 µM
MCF-7 cells
  Cell cycle parameters % G0/G1, 24 hours: 19.48%
  Cell cycle parameters % G2/M, 24 hours: 62.38%
  Cell cycle parameters % S, 24 hours: 4.19%
  Cell cycle parameters % Sub-G1, 24 hours: 7.24%
  Cell cycle parameters % G0/G1, 72 hours: 19.05%
  Cell cycle parameters % G2/M, 72 hours: 37.36%
  Cell cycle parameters % S, 72 hours: 8.53%
  Cell cycle parameters % Sub-G1, 72 hours: 30.62%
Tubulin [7]
  Binding stoichiometry, noscapine molecule per tubulin dimer: 0.95 ± 0.02
Tubulin [7]; values quoted in the text for comparison, read-out: Equilibrium dissociation constant (KD)
  Kd: 144 ± 1 µM

## COC(=O)CN1CCc2cc3c(c(OC)c2[C@@H]1[C@H]1OC(=O)c2c1ccc(OC)c2OC)OCO3 [Compound 6i, Methyl 2-((R)-5-((S)-4,5-dimethoxy-3-oxo-1,3-dihydroisobenzofuran-1-yl)-4-methoxy-7,8-dihydro-[1,3]dioxolo[4,5-g]isoquinolin-6(5H)-yl)acetate]
Tubulin [1]
  Kd: 79 ± 8 µM
  Experimental ΔGbind: -5.602 kcal/mol
[2]
  IC50: 9.5 ± 0.7 µM
[3]
  IC50: 22.3 ± 1.2 µM
[4]
  IC50: 45.4 ± 2.5 µM
[5]
  IC50: 36 ± 1.9 µM
MCF-7 cells
  Cell cycle parameters % G0/G1, 24 hours: 19.57%
  Cell cycle parameters % G2/M, 24 hours: 63.38%
  Cell cycle parameters % S, 24 hours: 4.62%
  Cell cycle parameters % Sub-G1, 24 hours: 12.25%
  Cell cycle parameters % G0/G1, 72 hours: 14.37%
  Cell cycle parameters % G2/M, 72 hours: 37.15%
  Cell cycle parameters % S, 72 hours: 6.43%
  Cell cycle parameters % Sub-G1, 72 hours: 40.18%
other
  melting point: 155 °C
